These compounds were tested against T1, LRRK2 (Homo sapiens, UniProt Q5S007, G2019S) (assay: In Vitro LRRK2 Assay (LabChip 3000, fluorescently-labeled peptide substrate, ATP)). Conditions: Table 9; LRRK2 Ki (micromolar); read-out: LRRK2 Ki (KI).
T1 construct: purchased Invitrogen PV4882 (lot 567054A)
Type: biochemical
Procedure, shortened: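 Read-out was LabChip capillary electrophoresis, resolving phospho- from non-phospho-peptide by fluorescence intensity. The kinase reaction combined enzyme, ATP, test compound and labeled peptide (4 μM working dilution) for 2 h in darkness before stop solution. Values were reported as Ki, from a tight-binding model with Et, S and Km, or as IC50 or percent inhibition.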

T1 sequence (Q5S007 whole entry G2019S): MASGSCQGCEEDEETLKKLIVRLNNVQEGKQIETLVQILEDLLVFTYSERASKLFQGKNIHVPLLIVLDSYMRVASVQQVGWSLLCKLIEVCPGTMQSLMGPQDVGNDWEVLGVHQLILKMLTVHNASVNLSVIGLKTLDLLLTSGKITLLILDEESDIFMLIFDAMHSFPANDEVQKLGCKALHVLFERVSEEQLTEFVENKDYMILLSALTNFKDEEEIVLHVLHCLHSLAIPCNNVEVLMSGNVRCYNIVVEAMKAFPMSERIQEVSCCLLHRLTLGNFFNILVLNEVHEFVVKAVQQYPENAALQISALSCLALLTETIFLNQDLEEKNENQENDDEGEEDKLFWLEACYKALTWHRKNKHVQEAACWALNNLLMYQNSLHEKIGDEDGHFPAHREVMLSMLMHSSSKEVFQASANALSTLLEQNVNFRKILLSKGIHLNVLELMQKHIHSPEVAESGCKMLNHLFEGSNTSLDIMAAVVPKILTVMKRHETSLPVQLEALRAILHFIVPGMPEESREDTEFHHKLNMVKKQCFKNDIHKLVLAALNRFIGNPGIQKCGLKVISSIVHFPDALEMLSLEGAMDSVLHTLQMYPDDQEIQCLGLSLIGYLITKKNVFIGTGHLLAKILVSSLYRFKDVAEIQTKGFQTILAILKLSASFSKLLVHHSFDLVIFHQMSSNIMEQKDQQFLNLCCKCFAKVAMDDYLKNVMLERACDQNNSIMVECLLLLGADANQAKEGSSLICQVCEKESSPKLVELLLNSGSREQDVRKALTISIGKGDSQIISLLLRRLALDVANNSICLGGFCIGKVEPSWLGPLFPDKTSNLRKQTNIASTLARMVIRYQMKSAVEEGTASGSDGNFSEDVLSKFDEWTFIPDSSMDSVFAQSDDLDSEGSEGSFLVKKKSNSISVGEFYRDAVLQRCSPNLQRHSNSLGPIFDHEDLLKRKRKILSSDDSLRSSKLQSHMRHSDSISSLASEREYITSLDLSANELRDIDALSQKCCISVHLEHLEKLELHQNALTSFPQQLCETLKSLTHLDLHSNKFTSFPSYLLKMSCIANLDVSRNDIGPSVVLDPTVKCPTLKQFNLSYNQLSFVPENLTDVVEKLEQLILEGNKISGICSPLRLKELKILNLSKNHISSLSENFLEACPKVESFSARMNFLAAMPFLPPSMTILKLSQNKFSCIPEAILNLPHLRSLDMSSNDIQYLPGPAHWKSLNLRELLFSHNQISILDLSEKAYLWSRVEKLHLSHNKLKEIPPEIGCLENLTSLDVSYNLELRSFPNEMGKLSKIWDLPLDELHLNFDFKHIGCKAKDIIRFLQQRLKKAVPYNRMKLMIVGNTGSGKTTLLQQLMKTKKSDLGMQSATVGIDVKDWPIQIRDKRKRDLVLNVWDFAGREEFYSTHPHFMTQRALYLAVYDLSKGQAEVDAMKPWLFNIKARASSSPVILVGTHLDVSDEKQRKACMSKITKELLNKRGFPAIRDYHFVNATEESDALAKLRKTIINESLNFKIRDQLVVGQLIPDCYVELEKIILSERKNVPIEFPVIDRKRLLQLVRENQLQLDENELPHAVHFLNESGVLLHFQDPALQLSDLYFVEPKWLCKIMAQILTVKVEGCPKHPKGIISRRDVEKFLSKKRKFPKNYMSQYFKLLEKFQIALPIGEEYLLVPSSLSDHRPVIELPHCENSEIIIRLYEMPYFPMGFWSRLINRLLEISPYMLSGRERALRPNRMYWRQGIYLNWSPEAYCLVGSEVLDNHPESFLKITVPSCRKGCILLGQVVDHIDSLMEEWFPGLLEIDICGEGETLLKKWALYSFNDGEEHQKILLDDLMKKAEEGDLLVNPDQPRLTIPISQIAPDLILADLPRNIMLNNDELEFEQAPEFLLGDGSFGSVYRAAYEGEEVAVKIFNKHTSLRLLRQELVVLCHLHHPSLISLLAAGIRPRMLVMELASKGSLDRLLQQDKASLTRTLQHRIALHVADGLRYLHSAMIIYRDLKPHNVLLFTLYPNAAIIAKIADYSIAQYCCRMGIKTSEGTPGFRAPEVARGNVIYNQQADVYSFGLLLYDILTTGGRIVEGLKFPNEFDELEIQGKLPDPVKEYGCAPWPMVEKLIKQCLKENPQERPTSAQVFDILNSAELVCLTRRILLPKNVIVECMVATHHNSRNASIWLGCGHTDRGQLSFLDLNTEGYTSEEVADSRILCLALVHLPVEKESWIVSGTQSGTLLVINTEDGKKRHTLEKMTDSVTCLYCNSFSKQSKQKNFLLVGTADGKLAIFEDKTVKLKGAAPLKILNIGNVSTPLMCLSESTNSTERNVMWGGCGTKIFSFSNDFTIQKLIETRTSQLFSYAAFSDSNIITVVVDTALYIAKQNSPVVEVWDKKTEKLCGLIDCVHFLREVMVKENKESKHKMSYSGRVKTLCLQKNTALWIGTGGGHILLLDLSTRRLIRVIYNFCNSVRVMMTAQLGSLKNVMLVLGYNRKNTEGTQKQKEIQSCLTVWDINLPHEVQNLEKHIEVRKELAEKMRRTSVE

Ki [nM]	SMILES
299	CNc1nc(Nc2cn(C3CCN(CC(F)(F)F)CC3)nc2C)ncc1C#N [Example 355, 2-(3-methyl-1-(1-(2,2,2-trifluoroethyl)piperidin-4-yl)-1H-pyrazol-4-ylamino)-4-(methylamino) pyrimidine-5-carbonitrile]
11	CNc1nc(Nc2cnn(C3CCC(F)(F)CC3)c2C)ncc1C#N [Example 381, 2-(1-(4,4-difluorocyclohexyl)-5-methyl-1H-pyrazol-4-ylamino)-4-(methylamino) pyrimidine-5-carbonitrile]
6	CCNc1nc(Nc2cnn(CC)c2C)ncc1C#N [Example 363, 2-(1-ethyl-5-methyl-1H-pyrazol-4-ylamino)-4-(ethylamino) pyrimidine-5-carbonitrile]
12.7	CCNc1nc(Nc2cnn(C)c2C)ncc1C#N [Example 385, 2-(1,5-Dimethyl-1H-pyrazol-4-ylamino)-4-ethylamino-pyrimidine-5-carbonitrile]
5.2	CCNc1nc(Nc2cnn(C3CCOCC3)c2C)ncc1C#N [Example 371, 4-(ethylamino)-2-(5-methyl-1-(tetrahydro-2H-pyran-4-yl)-1H-pyrazol-4-ylamino) pyrimidine-5-carbonitrile]
266	CNc1nc(Nc2cn(C3CCC(F)(F)CC3)nc2C)ncc1C#N [Example 392, 2-[1-(4,4-Difluoro-cyclohexyl)-3-methyl-1H-pyrazol-4-ylamino]-4-methylamino-pyrimidine-5-carbonitrile]

Same assay, conditions: Table 10; LRRK2 Ki (micromolar); read-out: LRRK2 Ki (KI)

Ki [nM]	SMILES
2.4	CNc1nc(Nc2cnn(C3(C#N)CCC3)c2C)ncc1C(F)(F)F [Example 446, 1-[5-Methyl-4-(4-methylamino-5-trifluoromethyl-pyrimidin-2-ylamino)-pyrazol-1-yl]-cyclobutane-carbonitrile]
18.4	CNC(=O)C(C)(C)n1cc(Nc2ncc(C(F)(F)F)c(NC)n2)c(C)n1 [Example 432, N,2-dimethyl-2-(3-methyl-4-(4-(methylamino)-5-(trifluoromethyl)pyrimidin-2-ylamino)-1H-pyrazol-1-yl)propanamide]
67	CNc1nc(Nc2cnn(C(C)(C)C(=O)NC(C)(C)C)c2C)ncc1C(F)(F)F [Example 447, N-tert-Butyl-2-[5-methyl-4-(4-methylamino-5-trifluoromethyl-pyrimidin-2-ylamino)-pyrazol-1-yl]-isobutyramide]

Same assay, conditions: read-out: LRRK2 Ki (KI), Table 7

Ki [nM]	SMILES
66	COc1nc(Nc2cn(C3CCN(C(=O)C4(C)CC4)CC3)nc2C)ncc1Cl [Example 66, (4-(4-(5-chloro-4-methoxy-pyrimidin-2-ylamino)-3-methyl-1H-pyrazol-1-yl)piperidin-1-yl)(1-methylcyclo-propyl) methanone]
2.5	CNc1nc(Nc2ccn(C(C)C)n2)ncc1C(F)(F)F [Example 57, N^2-(1-isopropyl-1H-pyrazol-3-yl)-N4-methyl-5-(trifluoromethyl) pyrimidine-2,4-diamine]
19	COCCn1ncc(Nc2ncc(Cl)c(OC)n2)c1C [Example 20, 5-chloro-4-methoxy-N-(1-(2-methoxyethyl)-5-methyl-1H-pyrazol-4-yl)pyrimidin-2-amine]
20	COc1nc(Nc2cnn(C)c2Cl)ncc1Cl [Example 21, 5-Chloro-N-(5-chloro-1-methyl-1H-pyrazol-4-yl)-4-methoxy-pyrimidin-2-amine]

Same assay, conditions: read-out: LRRK2 Ki (KI), Table 8

SMILES	Ki [nM]
CNc1nc(Nc2cn(C[C@H](C)OC)nc2C)ncc1C(F)(F)F [Example 189, (S)-N2-(1-(2-methoxypropyl)-3-methyl-1H-pyrazol-4-yl)-N4-methyl-5-(trifluoromethyl) pyrimidine-2,4-diamine]	11.8
CNc1nc(Nc2cnn(C3CCN(CC(F)(F)F)CC3)c2C)ncc1C(F)(F)F [Example 91, N4-methyl-N2-(5-methyl-1-(1-(2,2,2-trifluoroethyl)piperidin-4-yl)-1H-pyrazol-4-yl)-5-(trifluoromethyl) pyrimidine-2,4-diamine]	4.1
CNc1nc(Nc2cnn(-c3cc(F)cc(F)c3)c2C)ncc1Br [Example 115, 5-bromo-N2-(1-(3,5-difluorophenyl)-5-methyl-1H-pyrazol-4-yl)-N4-methylpyrimidine-2,4-diamine]	31
CNc1nc(Nc2cn(S(=O)(=O)C(C)C)nc2C)ncc1C(F)(F)F [Example 217, N2-(1-(isopropylsulfonyl)-3-methyl-1H-pyrazol-4-yl)-N4-methyl-5-(trifluoromethyl) pyrimidine-2,4-diamine]	9.9
CNc1nc(Nc2nn(C3CCN(C)CC3)cc2C)ncc1C(F)(F)F [Example 141, N4-methyl-N2-(4-methyl-1-(1-methylpiperidin-4-yl)-1H-pyrazol-3-yl)-5-(trifluoromethyl) pyrimidine-2,4-diamine]	41
CNc1nc(Nc2cnn(C3CCN(CCOC)CC3)c2C)ncc1C(F)(F)F [Example 239, N2-(1-(1-(2-methoxyethyl)piperidin-4-yl)-5-methyl-1H-pyrazol-4-yl)-N4-methyl-5-(trifluoromethyl) pyrimidine-2,4-diamine]	6
CNc1nc(Nc2cnn(C[C@@H](C)OC)c2C)ncc1C(F)(F)F [Example 192, (R)-N2-(1-(2-methoxypropyl)-5-methyl-1H-pyrazol-4-yl)-N4-methyl-5-(trifluoromethyl) pyrimidine-2,4-diamine]	6.3
CNc1nc(Nc2cn(CC(C)(C)O)nc2C(F)(F)F)ncc1C(F)(F)F [Example 198, 2-methyl-1-(4-(4-(methylamino)-5-(trifluoromethyl)pyrimidin-2-ylamino)-3-(trifluoromethyl)-1H-pyrazol-1-yl)propan-2-ol]	27
CNc1nc(Nc2cnn(C(C)(C)COC)c2C)ncc1C(F)(F)F [Example 203, N2-(1-(1-methoxy-2-methylpropan-2-yl)-5-methyl-1H-pyrazol-4-yl)-N4-methyl-5-(trifluoromethyl) pyrimidine-2,4-diamine]	42
CCNc1nc(Nc2cn(S(C)(=O)=O)nc2C)ncc1C(F)(F)F [Example 160, N4-ethyl-N2-(3-methyl-1-(methylsulfonyl)-1H-pyrazol-4-yl)-5-(trifluoromethyl) pyrimidine-2,4-diamine]	0.3
CCC(C)S(=O)(=O)n1cc(Nc2ncc(C(F)(F)F)c(NC)n2)c(C)n1 (stereo not drawn) [Example 220, N2-(1-(sec-butylsulfonyl)-3-methyl-1H-pyrazol-4-yl)-N4-methyl-5-(trifluoromethyl) pyrimidine-2,4-diamine]	11.7
CNc1nc(Nc2cn(C3CCN(C)CC3F)nc2C)ncc1C(F)(F)F (stereo not drawn) [Example 222, N2-(1-(3-fluoro-1-methylpiperidin-4-yl)-3-methyl-1H-pyrazol-4-yl)-N4-methyl-5-(trifluoromethyl) pyrimidine-2,4-diamine]	1.6
CNc1nc(Nc2cnn(-c3ccc(S(C)(=O)=O)cc3)c2C)ncc1C(F)(F)F [Example 125, N4-methyl-N2-(5-methyl-1-(4-(methylsulfonyl)phenyl)-1H-pyrazol-4-yl)-5-(trifluoromethyl) pyrimidine-2,4-diamine]	4.7

Now from value to compound:

Ki [nM]	SMILES
10.8	CNc1nc(Nc2cn(CC(O)C(C)C)nc2C)ncc1C(F)(F)F (stereo not drawn) [Example 321, 3-Methyl-1-[3-methyl-4-(4-methylamino-5-trifluoromethyl-pyrimidin-2-ylamino)-pyrazol-1-yl]-butan-2-ol]
2	CCNc1nc(Nc2cnn(C3CCN(CCOC)CC3)c2C)ncc1C(F)(F)F [Example 283, N4-Ethyl-N2-{1-[1-(2-methoxy-ethyl)-piperidin-4-yl]-5-methyl-1H-pyrazol-4-yl}-5-trifluoromethyl-pyrimidine-2,4-diamine]
8.9	CNc1nc(Nc2cn([C@@H](C)COC)nc2C)ncc1C(F)(F)F [Example 275, N2-[1-((S)-2-Methoxy-1-methyl-ethyl)-3-methyl-1H-pyrazol-4-yl]-N4-methyl-5-trifluoromethyl-pyrimidine-2,4-diamine]
0.7	CCNc1nc(Nc2cn(C3CCNCC3F)nc2C)ncc1C(F)(F)F (stereo not drawn) [Example 333, N4-Ethyl-N2-[1-(3-fluoro-piperidin-4-yl)-3-methyl-1H-pyrazol-4-yl]-5-trifluoromethyl-pyrimidine-2,4-diamine]
0.4	CCNc1nc(Nc2cnn(C3CCN(CC4OCCO4)C3)c2C)ncc1C(F)(F)F (stereo not drawn) [Example 328, N2-[1-(1-[1,3]Dioxolan-2-ylmethyl-pyrrolidin-3-yl)-5-methyl-1H-pyrazol-4-yl]-N4-ethyl-5-trifluoromethyl-pyrimidine-2,4-diamine]
2.3	CNc1nc(Nc2cn(C(C)(C)c3nnc[nH]3)nc2C)ncc1C(F)(F)F [Example 332, N4-Methyl-N2-{3-methyl-1-[1-methyl-1-(4H-[1,2,4]triazol-3-yl)-ethyl]-1H-pyrazol-4-yl}-5-trifluoromethyl-pyrimidine-2,4-diamine]
0.5	CCNc1nc(Nc2cn(C(C)(C)c3nnc[nH]3)nc2C)ncc1C(F)(F)F [Example 327, N4-Ethyl-N2-{3-methyl-1-[1-methyl-1-(4H-[1,2,4]triazol-3-yl)-ethyl]-1H-pyrazol-4-yl}-5-trifluoromethyl-pyrimidine-2,4-diamine]
2.2	CCn1cc(Nc2ncc(Br)c(NC)n2)c(C)n1 [Example 253, 5-Bromo-N2-(1-ethyl-3-methyl-1H-pyrazol-4-yl)-N4-methyl-pyrimidine-2,4-diamine]
2.3	CCNc1nc(Nc2cnn(CC(C)(C)O)c2C)ncc1C(F)(F)F [Example 296, 1-[4-(4-Ethylamino-5-trifluoromethyl-pyrimidin-2-ylamino)-5-methyl-pyrazol-1-yl]-2-methyl-propan-2-ol]

Same assay, conditions: read-out: LRRK2 Ki given in the example

Ki [nM]	SMILES
25	CNc1nc(Nc2cnn(C)c2C)ncc1C#N [Example 349, 2-(1,5-Dimethyl-1H-pyrazol-4-ylamino)-4-(methylamino)pyrimidine-5-carbonitrile]
